Laboratory results taken from ChEMBL document CHEMBL1201862, “PubChem BioAssay data set” (2004).
Activity calls are given as the source filed them.

Columns and labels:
[1] = molecular target: Glucose-6-phosphate 1-dehydrogenase (Homo sapiens, UniProt P11413); test: human G6PD enzyme inhibitors, dose response, selectivity assay for P. falciparum G6PD inhibitor project, biochemical, fluorescence (AID 504792); type: functional
[2] = molecular target: T1, Sentrin-specific protease 7 (Homo sapiens, UniProt Q9BQF6); type: functional;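 further: Luminescence-based dose-response confirmation of ultra-high-throughput screening hits, measuring inhibition of SENP7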
T1 sequence (Q9BQF6 whole entry): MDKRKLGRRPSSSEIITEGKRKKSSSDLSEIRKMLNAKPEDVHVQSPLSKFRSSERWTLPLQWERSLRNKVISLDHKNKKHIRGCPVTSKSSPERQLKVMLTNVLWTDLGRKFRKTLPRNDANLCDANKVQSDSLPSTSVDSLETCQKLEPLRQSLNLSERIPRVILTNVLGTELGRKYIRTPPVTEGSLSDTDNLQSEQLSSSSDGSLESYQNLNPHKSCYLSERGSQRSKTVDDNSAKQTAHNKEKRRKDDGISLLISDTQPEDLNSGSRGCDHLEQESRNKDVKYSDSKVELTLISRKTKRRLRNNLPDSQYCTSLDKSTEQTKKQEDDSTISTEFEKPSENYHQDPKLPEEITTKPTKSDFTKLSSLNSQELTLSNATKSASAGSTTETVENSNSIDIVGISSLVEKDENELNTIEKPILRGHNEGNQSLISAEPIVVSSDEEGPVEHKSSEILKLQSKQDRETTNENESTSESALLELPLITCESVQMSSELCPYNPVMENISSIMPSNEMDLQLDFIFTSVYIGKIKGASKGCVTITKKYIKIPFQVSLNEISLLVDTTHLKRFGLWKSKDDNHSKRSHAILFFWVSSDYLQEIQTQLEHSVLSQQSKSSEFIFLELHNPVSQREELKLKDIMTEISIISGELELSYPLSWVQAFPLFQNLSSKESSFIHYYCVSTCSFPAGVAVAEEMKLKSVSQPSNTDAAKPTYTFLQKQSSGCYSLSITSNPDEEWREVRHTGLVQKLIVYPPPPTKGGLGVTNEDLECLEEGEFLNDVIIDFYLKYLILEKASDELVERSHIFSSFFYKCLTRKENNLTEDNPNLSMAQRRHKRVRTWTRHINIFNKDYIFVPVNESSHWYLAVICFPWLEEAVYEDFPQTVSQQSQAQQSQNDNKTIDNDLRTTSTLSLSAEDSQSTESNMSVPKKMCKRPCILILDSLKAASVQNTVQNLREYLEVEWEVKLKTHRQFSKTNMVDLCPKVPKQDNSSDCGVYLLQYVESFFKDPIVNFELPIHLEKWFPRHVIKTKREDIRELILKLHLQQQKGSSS

[3] = molecular target: T2, Sentrin-specific protease 6 (Homo sapiens, UniProt Q9GZR1); type: functional;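 further: Luminescence-based dose-response confirmatory assay of SENP6 inhibition, following up an ultra-high-throughput screen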
T2 sequence (Q9GZR1 whole entry): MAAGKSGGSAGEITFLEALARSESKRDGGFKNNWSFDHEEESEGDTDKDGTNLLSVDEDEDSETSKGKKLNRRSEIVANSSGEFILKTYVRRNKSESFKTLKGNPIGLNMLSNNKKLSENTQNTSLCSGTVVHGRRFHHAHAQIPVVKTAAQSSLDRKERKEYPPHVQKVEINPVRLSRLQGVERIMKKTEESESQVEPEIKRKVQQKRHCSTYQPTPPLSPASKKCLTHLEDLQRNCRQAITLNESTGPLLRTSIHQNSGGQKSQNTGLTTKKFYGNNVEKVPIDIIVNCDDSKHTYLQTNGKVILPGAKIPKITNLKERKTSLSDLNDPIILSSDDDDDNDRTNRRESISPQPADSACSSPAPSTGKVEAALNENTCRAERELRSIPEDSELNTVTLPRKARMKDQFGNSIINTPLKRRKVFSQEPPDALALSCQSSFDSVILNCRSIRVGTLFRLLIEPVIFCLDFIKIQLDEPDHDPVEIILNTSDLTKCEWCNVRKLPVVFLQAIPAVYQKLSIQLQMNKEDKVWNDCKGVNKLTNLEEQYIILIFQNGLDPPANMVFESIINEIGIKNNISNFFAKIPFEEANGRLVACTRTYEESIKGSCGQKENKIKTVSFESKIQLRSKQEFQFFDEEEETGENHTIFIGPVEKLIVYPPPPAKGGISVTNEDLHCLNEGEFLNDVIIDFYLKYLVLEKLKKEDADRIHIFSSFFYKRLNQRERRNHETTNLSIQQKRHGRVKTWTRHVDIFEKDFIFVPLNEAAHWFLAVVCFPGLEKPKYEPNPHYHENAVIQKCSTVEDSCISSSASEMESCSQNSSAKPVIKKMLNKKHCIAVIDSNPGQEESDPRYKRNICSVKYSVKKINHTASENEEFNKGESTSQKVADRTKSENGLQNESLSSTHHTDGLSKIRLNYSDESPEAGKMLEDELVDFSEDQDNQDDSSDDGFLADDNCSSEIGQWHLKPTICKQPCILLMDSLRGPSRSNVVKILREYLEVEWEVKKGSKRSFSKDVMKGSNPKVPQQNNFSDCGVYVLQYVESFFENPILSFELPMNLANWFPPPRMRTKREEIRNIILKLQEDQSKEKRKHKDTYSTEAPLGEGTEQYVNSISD

[4] = molecular target: T3, Sentrin-specific protease 8 (Homo sapiens, UniProt Q96LD8); type: functional;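 further: luminescence read-out of SENP8 inhibition, dose-response confirmation following an ultra-high-throughput screen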
T3 sequence (Q96LD8 whole entry): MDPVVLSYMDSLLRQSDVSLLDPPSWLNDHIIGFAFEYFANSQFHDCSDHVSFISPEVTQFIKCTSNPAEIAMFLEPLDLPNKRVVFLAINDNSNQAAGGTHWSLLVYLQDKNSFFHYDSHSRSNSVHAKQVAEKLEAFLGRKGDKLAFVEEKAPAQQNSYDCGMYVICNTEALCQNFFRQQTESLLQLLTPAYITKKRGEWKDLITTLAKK

[5] = molecular target: T4, Caspase-3 (Homo sapiens, UniProt P42574); type: functional;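 further: Dose-response selectivity test against caspase-3 for candidate inhibitors of sentrin-specific proteases (SENPs)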
T4 sequence (P42574 whole entry): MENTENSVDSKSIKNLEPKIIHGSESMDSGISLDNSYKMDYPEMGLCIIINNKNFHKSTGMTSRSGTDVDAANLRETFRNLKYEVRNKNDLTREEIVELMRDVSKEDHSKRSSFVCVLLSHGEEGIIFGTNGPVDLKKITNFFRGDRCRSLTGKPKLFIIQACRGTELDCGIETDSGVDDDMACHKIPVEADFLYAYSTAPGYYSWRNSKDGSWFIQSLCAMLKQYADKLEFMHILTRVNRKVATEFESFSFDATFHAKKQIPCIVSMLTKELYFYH

[6] = Luminescence Cell-Based Dose Retest to Confirm Inhibitors of Cancer Stem Cells. [Related pubchem assays (depositor defined):AID2717, AID2721]; type: functional; conditions: Homo sapiens
[7] = molecular target: T5, Short transient receptor potential channel 4 (Mus musculus, UniProt Q9QUQ5); test: mouse TRPC4 channel activators, dose response, cell-based, HEK293 TRPC4/mu-opioid, Fluo-4 calcium (AID 434937); type: functional
T5 sequence (Q9QUQ5 whole entry): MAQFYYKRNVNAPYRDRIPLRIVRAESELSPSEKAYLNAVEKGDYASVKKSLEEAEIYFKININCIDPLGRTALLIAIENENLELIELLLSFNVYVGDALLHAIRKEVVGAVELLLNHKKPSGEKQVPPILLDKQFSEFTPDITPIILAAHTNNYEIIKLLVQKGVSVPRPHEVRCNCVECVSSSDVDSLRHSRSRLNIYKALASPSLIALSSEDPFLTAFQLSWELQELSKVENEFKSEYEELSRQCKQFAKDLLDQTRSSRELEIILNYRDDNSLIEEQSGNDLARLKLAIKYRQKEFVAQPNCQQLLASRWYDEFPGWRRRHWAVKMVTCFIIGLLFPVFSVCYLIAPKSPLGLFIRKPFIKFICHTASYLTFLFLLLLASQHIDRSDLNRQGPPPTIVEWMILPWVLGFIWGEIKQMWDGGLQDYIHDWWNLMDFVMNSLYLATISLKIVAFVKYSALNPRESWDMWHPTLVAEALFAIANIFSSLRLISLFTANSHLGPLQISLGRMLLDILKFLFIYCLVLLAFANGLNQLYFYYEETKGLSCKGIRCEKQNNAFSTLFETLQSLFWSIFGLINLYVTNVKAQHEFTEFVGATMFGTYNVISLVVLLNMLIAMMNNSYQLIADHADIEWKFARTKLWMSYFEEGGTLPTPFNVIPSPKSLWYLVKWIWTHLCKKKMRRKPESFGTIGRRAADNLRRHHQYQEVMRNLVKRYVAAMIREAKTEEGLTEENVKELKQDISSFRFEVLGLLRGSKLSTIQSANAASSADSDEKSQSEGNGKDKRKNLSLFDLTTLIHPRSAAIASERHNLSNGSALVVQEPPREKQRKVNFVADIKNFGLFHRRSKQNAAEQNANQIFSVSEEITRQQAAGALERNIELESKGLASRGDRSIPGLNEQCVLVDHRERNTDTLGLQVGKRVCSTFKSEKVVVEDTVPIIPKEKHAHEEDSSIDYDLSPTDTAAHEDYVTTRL

[8] = molecular target: 5-hydroxytryptamine receptor 5A (Homo sapiens, UniProt P47898); test: Counterscreen for agonists of OPRM1-OPRD1 heterodimerization: luminescence-based cell-based high throughput dose response assay to identify agonists of 5-hydroxytryptamine (serotonin) 5A receptor (HTR5A). [Related pubchem assays (depositor defined):AID504326, AID504355, AID504692, AID504904, AID504905]; type: functional
Chain of 5-hydroxytryptamine receptor 5A (P47898 whole entry): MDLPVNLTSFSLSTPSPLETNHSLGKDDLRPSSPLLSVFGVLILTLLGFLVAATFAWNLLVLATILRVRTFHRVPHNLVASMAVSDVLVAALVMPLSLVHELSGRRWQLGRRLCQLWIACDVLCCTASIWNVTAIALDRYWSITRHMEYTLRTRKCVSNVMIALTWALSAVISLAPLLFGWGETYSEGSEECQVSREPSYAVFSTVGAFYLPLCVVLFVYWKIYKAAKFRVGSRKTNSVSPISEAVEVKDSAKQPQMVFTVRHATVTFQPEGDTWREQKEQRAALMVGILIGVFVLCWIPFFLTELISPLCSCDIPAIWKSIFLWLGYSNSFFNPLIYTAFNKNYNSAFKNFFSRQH

[9] = molecular target: Mu-type opioid receptor (Homo sapiens, UniProt P35372); test: Counterscreen for agonists of heterodimerization of the mu 1 (OPRM1) and delta 1 (OPRD1) opioid receptors: Luminescence-based cell-based high throughput dose response assay to identify agonists of OPRM1 homodimerization.; type: functional;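 further: U2OS cells expressing OPRM1 and beta-arrestin as split beta-galactosidase partners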
Chain of Mu-type opioid receptor (P35372 whole entry): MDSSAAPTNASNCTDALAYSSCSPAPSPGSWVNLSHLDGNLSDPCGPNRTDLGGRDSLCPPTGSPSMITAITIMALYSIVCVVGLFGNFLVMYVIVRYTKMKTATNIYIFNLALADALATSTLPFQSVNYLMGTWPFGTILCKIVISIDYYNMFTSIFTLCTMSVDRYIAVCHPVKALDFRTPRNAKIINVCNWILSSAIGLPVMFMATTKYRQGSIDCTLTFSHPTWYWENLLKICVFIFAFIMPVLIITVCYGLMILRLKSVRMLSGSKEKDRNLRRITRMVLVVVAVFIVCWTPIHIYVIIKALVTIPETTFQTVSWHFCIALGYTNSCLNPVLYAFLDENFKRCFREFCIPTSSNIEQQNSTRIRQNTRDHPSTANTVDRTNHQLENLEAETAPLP

[10] = molecular target: Delta-type opioid receptor (Homo sapiens, UniProt P41143); test: Counterscreen for agonists of heterodimerization of the mu 1 (OPRM1) and delta 1 (OPRD1) opioid receptors: Luminescence-based cell-based high throughput dose response assay to identify agonists of OPRD1 homodimerization. [Related pubchem assays (depositor defined):AID504326, AID504355, AID504692, AID504904, AID504905]; type: functional
Chain of Delta-type opioid receptor (P41143 whole entry): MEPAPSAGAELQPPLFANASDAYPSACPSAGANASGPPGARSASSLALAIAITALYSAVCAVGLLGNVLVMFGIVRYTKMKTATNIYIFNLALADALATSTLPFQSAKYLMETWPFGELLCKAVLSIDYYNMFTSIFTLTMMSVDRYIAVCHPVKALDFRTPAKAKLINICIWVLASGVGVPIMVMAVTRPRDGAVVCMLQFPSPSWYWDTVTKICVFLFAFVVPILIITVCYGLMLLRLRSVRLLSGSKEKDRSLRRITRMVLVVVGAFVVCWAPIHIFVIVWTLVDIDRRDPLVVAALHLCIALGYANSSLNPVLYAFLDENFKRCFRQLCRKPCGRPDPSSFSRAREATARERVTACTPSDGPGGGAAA

[11] = cytotoxicity toward NIH3T3 fibroblasts, dose response, counter-screen, cell-based, ATP luminescence, mouse fibroblasts (AID 2010); type: functional;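 further: cells exposed to compound for about 90 hours before reading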
[12] = cells; type: functional
[13] = inhibitors of intracellular T. cruzi replication, confirmation, NIH3T3 host cells, beta-gal luminescence (AID 2044); type: functional, cell-based;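 further: intracellular parasites grown in NIH/3T3 mouse fibroblasts as host cells; luminescent beta-galactosidase reporter signal from transgenic T. cruzi replicating inside host cells; inhibitors lower the luminescence signal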
[14] = cytotoxicity in HEK-293T cells, dose response, cytotoxicity control for TCR NF-kB inhibitor project, luminescence, T-cell screen hits (AID 489026); type: functional, cell-based;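 further: cells exposed to compound about 14 hours before the viability readout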
[15] = tested on: BJ; test: cytotoxicity toward BJ-TERT-LT-ST fibroblasts, dose response, cell-based, RAS-independent, luminescence (AID 1935); type: functional; conditions: Homo sapiens;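 further: BJ fibroblasts immortalized with TERT plus LT and ST oncogenes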
[16] = inhibitors of SNCA 5'UTR-driven reporter translation, confirmation, H4 neuroglioma cells, luminescence (AID 1988); type: functional, cell-based
[17] = Luminescence Cell-Based Dose Response HTS to Identify Inhibitors of 5'UTR Stem-Loop Driven Prion Protein mRNA Translation in H4 Neuroglioblastoma Cells. [Related pubchem assays: 1827 (Project Summary), 1813 (Primary HTS)]; type: functional
[18] = tested on: BJ; test: cells; type: functional, cell-based; conditions: Homo sapiens
[19] = inhibitors of firefly luciferase expression or activity, dose response, H4 neuroglioma cells, luminescence (AID 1990); type: functional, cell-based
[20] = tested on: BJ; test: cytotoxicity toward BJ-TERT fibroblasts, dose response, cell-based, RAS-independent, luminescence (AID 1933); type: functional; conditions: Homo sapiens
[21] = cytotoxicity toward DRD oncogenic fibroblasts, dose response, cell-based, non-viral oncogenic, luminescence (AID 1934); type: functional; conditions: Homo sapiens
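Wherever AC50 is given: cells exposed to compound for roughly 70 hours or longer before luminescence read.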

Chain of Glucose-6-phosphate 1-dehydrogenase (P11413 whole entry): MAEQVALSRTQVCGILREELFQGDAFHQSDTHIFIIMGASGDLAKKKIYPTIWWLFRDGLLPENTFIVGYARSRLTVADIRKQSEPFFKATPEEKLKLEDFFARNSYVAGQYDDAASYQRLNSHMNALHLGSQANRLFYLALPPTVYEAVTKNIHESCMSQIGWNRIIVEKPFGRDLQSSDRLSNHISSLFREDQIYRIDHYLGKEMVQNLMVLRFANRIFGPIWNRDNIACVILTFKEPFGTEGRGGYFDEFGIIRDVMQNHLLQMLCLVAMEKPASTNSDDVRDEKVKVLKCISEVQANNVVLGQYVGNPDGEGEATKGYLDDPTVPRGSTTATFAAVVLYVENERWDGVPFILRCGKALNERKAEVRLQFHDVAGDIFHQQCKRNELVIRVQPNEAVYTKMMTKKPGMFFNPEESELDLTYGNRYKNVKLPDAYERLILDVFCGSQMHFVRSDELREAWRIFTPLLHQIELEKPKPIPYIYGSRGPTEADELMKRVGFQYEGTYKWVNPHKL

Compound | IC50 [1] | IC50 [2] | IC50 [3] | IC50 [4] | IC50 [5] | EC50 [7] | EC50 [8] | EC50 [9] | EC50 [10] | other results
COc1ccc(N=C2C(=S)N(c3ccc(OC)cc3)C(=NS(=O)(=O)c3ccccc3)N2c2ccccc2)cc1 | > 80 µM (inactive) |  |  |  |  |  |  |  |  | 
O=C(Nc1ccccc1)c1ccc(-c2ccccc2Cl)o1 |  | 4.47 µM (active) | > 100 µM (inactive) | > 100 µM (inactive) | 74.3 µM (active) |  |  |  |  | 
CC(C)(C)c1ccc(O)c(O)c1 | > 80 µM (inactive) |  |  |  |  |  |  |  |  | AC50 [6]: 4.47 µM (active)
O=C(Nc1nnc(S(=O)(=O)N2CCOCC2)s1)c1ccc(F)cc1 | > 80 µM (inactive) |  |  |  |  |  |  |  |  | 
CCOC(=O)C1(CC2CC2)CCN(Cc2cnc(-c3ccccc3C)nc2)CC1 |  |  |  |  |  | 5.31 µM (active) | > 92.5 µM (inactive) | > 92.5 µM (inactive) | > 92.5 µM (inactive) | 
O=C(OCC(=O)N1CCC(c2ccccc2)=N1)c1ccc([N+](=O)[O-])s1 |  | 18.9 µM (active) | 7.19 µM (active) | 5.92 µM (active) | 28.2 µM (active) |  |  |  |  | EC50 [11]: > 30 µM (not active); IC50 [12]: 1.13 µM (active); EC50 [13]: 0.809 µM (active)
CCc1cccc(C)c1N=C(S)NCC(c1cccnc1)N(C)C (centres undefined) |  |  |  |  |  | 0.0467 µM (active) | > 92.5 µM (inactive) | > 92.5 µM (inactive) | 79.4 µM (inactive) | 
O=C(c1cc(-c2ccncc2)nc2c(Cl)cccc12)N1CCN(c2ccccc2F)CC1 |  |  |  |  |  |  |  |  |  | IC50 [14]: > 80 µM (inactive); EC50 [15]: 4.08 µM (active); EC50 [16]: 3.67 µM (active); EC50 [17]: > 120 µM (not active); EC50 [18]: 18.9 µM (active); EC50 [19]: 7.93 µM (inconclusive); EC50 [20]: 8.6 µM (inconclusive); EC50 [21]: 12.8 µM (inconclusive)
CN(C)CCCN(C(=O)c1ccc(S(=O)(=O)N2CCc3ccccc3C2)cc1)c1nc2c(F)cc(F)cc2s1 |  |  |  |  |  | 1.19 µM (active) | > 92.5 µM (inactive) | 5.1 µM (active) | > 92.5 µM (inactive) | 
Brc1ccc(NN=Nc2ccccc2)cc1 |  | 4.66 µM (active) | 11.2 µM (active) | 10.9 µM (active) | 27.1 µM (active) |  |  |  |  | 
